Experimental data taken from patent publication US6303630A, “Diarylsulfone non-nucleoside reverse transcriptase inhibitors of human immunodeficiency virus” (University of the Sciences in Philadelphia, priority 2000, dated 2001).
Like-named read-outs stand apart in the source and are kept apart here.

Tests used:
HIV-1 = assay: NCI in vitro anti-HIV drug screen: XTT-formazan assay, protection of T4 lymphocytes (CEM) from HIV-1 cytopathic effects; format: cell-based, human immunodeficiency virus (HIV-1); conditions: for EC50: 144 h, HIV-1 infected CEM cells, 6 days, XTT, approximate values, read-out: EC50 (50% effective concentration against HIV cytopathic effects); for inhibition at 200 µM / activity at 200 µM: dose 2.00 × 10^-4 Molar; for inhibition at 2 µM / activity at 2 µM: dose 2.00 × 10^-6 Molar; for inhibition at 0.2 µM / activity at 0.2 µM: dose 2.00 × 10^-7 Molar; for TI50 (IC/EC), Therapeutic Index: IC50/EC50
Protocol: Compounds of the present invention were evaluated for anti-HIV efficacy by the National Cancer Institute's (NCI) In Vitro Anti AIDS Drug Discovery Program.
(§1) The NCI procedure is fully described, for example, in a bulletin provided by the National Institutes of Health, National Cancer Institute, Bethesda, Md. 20892, all of which is incorporated herein by reference. As related in the NCI bulletin, the procedure is based on O. W. Weislow et al., "New soluble-formazan assay for HIV-1 cytopathic effects: application to high flux screening of synthetic and natural products for AIDS-antiviral activity", J. Natl. Cancer Inst. 81:577-586 (1989), and is used to test for compounds active against human immunodeficiency virus (HIV), and is designed to detect compounds active at any stage of the virus reproductive cycle. As further related in the NCI bulletin, the assay includes killing of T4 lymphocytes by HIV. Amounts of HIV are added to cells, with a minimum of two cycles of virus reproduction found to be necessary to obtain the required cell killing. Compounds that interact with virions, cells, or virus gene-products to interfere with viral activities will protect cells from cytolysis. All were compared with a positive (e.g., AZT-treated) control evaluation at the same time under identical conditions. The procedure is set forth as follows:
(§2) A candidate compound is first dissolved in a suitable solvent, preferably dimethyl sulfoxide, then diluted 1:100 in cell culture medium before preparing serial half-log10 dilutions. T4 lymphocytes (CEM cell line) are then added and after a brief interval HIV-1 is added, resulting in a 1:200 final dilution of the compound. Uninfected cells with the compound serve as a toxicity control, and infected and uninfected without the compound serve as basic controls. Cultures are then incubated at 37° in a 5% carbon dioxide atmosphere for 6 days. The tetrazolium salt, XTT, is added to all wells, and cultures are incubated to allow formazan color development by viable cells. Individual wells are analyzed spectrophotometrically to quantitate formazan product, and in addition are viewed microscopically for detection of viable cells and confirmation of protective activity. Drug-treated virus-infected cells are compared with drug-treated noninfected cells and with other appropriate controls (untreated infected and untreated noninfected cells, drug-containing wells without cells, etc.) on the same plate. Data are reviewed in comparison with other tests performed at the same time and a determination as to activity is made.

[1] = tested on: T4 lymphocytes (CEM cell line); assay: Cell growth / toxicity control in uninfected T4 lymphocytes (CEM), XTT-formazan; format: cell-based; conditions: Homo sapiens, CCRF-CEM; for IC50: 144 h, approximate values; for activity at 200 µM: dose 2.00 × 10^-4 Molar; for activity at 20 µM: dose 2.00 × 10^-5 Molar; for activity at 2 µM: dose 2.00 × 10^-6 Molar; for activity at 0.2 µM: dose 2.00 × 10^-7 Molar; for activity at 6.33 µM: dose 6.33 × 10^-6 Molar; for activity at 0.634 µM: dose 6.34 × 10^-7 Molar; for activity at 0.0635 µM: dose 6.35 × 10^-8 Molar; for activity at 63.2 µM: dose 6.32 × 10^-5 Molar
Description: as §1, §2

[2] = Human immunodeficiency virus 1, CCRF-CEM
[3] = Human immunodeficiency virus 1, CCRF-CEM, read-out: Percent of Protection
[4] = Human immunodeficiency virus 1, CCRF-CEM, dose 6.34 × 10^-7 Molar, read-out: Percent of Protection
[5] = Human immunodeficiency virus 1, CCRF-CEM, read-out: Percent of Protection, dose 2.00 × 10^-5 Molar
[6] = Human immunodeficiency virus 1, CCRF-CEM, read-out: Percent of Protection, dose 6.33 × 10^-6 Molar
[7] = Human immunodeficiency virus 1, CCRF-CEM, read-out: Percent of Protection, dose 6.35 × 10^-8 Molar
[8] = Human immunodeficiency virus 1, Lymphocyte, read-out: Percent of Control, Infected
[9] = Human immunodeficiency virus 1, Lymphocyte, dose 2.00 × 10^-5 Molar, read-out: Percent of Control, Infected
[10] = Human immunodeficiency virus 1, Lymphocyte, dose 6.33 × 10^-6 Molar, read-out: Percent of Control, Infected
[11] = Human immunodeficiency virus 1, Lymphocyte, dose 6.34 × 10^-7 Molar, read-out: Percent of Control, Infected
[12] = Human immunodeficiency virus 1, Lymphocyte, dose 6.35 × 10^-8 Molar, read-out: Percent of Control, Infected
[13] = read-out: IC50 (50% inhibitory concentration for cell growth), uninfected CEM cells, 6 days, XTT
[14] = read-out: Percent of Control, Uninfected
[15] = Human immunodeficiency virus 1, CCRF-CEM, read-out: Percent of Protection, dose 6.32 × 10^-5 Molar
[16] = Human immunodeficiency virus 1, Lymphocyte, dose 6.32 × 10^-5 Molar, read-out: Percent of Control, Infected

With `CN(c1ccccc1)S(=O)(=O)c1cccc([N+](=O)[O-])c1` [Compound 14, N-(3-nitrophenylsulfonyl)-N-methylaniline] the EC50 (HIV-1; [2]) was 42.5 µM, the inhibition at 200 µM (HIV-1; [3]) was 5.28% and the inhibition at 2 µM (HIV-1; [3]) was -6.93%. The inhibition at 0.2 µM (HIV-1; [3]) was -10.9%, the inhibition at 63.3 µM (HIV-1; Human immunodeficiency virus 1, CCRF-CEM, dose 6.33 × 10^-5 Molar, read-out: Percent of Protection) was 78.3% and the inhibition at 0.634 µM (HIV-1; [4]) was -13.4%. For the same molecule, the inhibition at 20 µM (HIV-1; [5]) was -3.74%, the inhibition at 6.33 µM (HIV-1; [6]) was -3.87% and the inhibition at 0.0635 µM (HIV-1; [7]) was -11.1%. The activity at 200 µM (HIV-1; [8]) was 17.6%, the activity at 20 µM (HIV-1; [9]) was 9.75% and the activity at 2 µM (HIV-1; [8]) was 6.97%. For the same molecule, the activity at 0.2 µM (HIV-1; [8]) was 3.54%, the activity at 63.3 µM (HIV-1; Human immunodeficiency virus 1, Lymphocyte, dose 6.33 × 10^-5 Molar, read-out: Percent of Control, Infected) was 81.1% and the activity at 6.33 µM (HIV-1; [10]) was 16.4%. The activity at 0.634 µM (HIV-1; [11]) was 1.34%, the activity at 0.0635 µM (HIV-1; [12]) was 3.37% and the “TI50 (IC/EC), Therapeutic Index” value (HIV-1) was 3.34 × 10^0. For the same molecule, the IC50 [1, 13] was 142 µM, the activity at 200 µM [1, 14] was 41.5% and the activity at 20 µM [1, 14] was 83.8%. For the same molecule, the activity at 2 µM [1, 14] was 87.2%, the activity at 0.2 µM [1, 14] was 93.2% and the activity at 63.3 µM ([1]; dose 6.33 × 10^-5 Molar, read-out: Percent of Control, Uninfected) was 70.2%. The activity at 6.33 µM [1, 14] was 81.3%, the activity at 0.634 µM [1, 14] was 87.8% and the activity at 0.0635 µM [1, 14] was 94.8%.

Molecule `Cc1ccc(N(C)S(=O)(=O)c2ccccc2[N+](=O)[O-])cc1` [Compound 31, N-(2-nitrophenylsulfonyl)-N,4-dimethylaniline] has an EC50 (HIV-1; [2]) of 12.5 µM, an inhibition at 200 µM (HIV-1; [3]) of -0.58% and an inhibition at 2 µM (HIV-1; [3]) of 9.89%. It also gave an inhibition at 0.2 µM (HIV-1; [3]) of -1.72%, an inhibition at 0.634 µM (HIV-1; [4]) of -2.85% and an inhibition at 20 µM (HIV-1; [5]) of 73.6%. The inhibition at 63.2 µM (HIV-1; [15]) was 18.4%, the inhibition at 6.33 µM (HIV-1; [6]) was 22% and the inhibition at 0.0635 µM (HIV-1; [7]) was -3.51%. It also gave an activity at 2 µM (HIV-1; [8]) of 14.4%, an activity at 0.2 µM (HIV-1; [8]) of 3.37% and an activity at 0.634 µM (HIV-1; [11]) of 2.29%. The activity at 0.0635 µM (HIV-1; [12]) was 1.67%, the “TI50 (IC/EC), Therapeutic Index” value (HIV-1) was 31.0 × 10^0 and the IC50 [1, 13] was 388 µM. For the same molecule, the activity at 200 µM [1, 14] was -0.75%, the activity at 20 µM [1, 14] was 84.3% and the activity at 2 µM [1, 14] was 84.1%. The activity at 0.2 µM [1, 14] was 95.8%, the activity at 63.2 µM [1, 14] was 24.6% and the activity at 6.33 µM [1, 14] was 91.1%. It also gave an activity at 0.634 µM [1, 14] of 89.9% and an activity at 0.0635 µM [1, 14] of 92.9%.

For `CN(c1ccccc1Cl)S(=O)(=O)c1ccccc1[N+](=O)[O-]` [Compound 38, N-(2-nitrophenylsulfonyl)-2chloro-N-methylaniline], the EC50 (HIV-1; [2]) was 4.38 µM, the inhibition at 200 µM (HIV-1; [3]) was 2.73% and the inhibition at 2 µM (HIV-1; [3]) was 10.4%. The inhibition at 0.2 µM (HIV-1; [3]) was 2.73%, the inhibition at 0.634 µM (HIV-1; [4]) was -0.31% and the inhibition at 0.0635 µM (HIV-1; Human immunodeficiency virus 1, CCRF-CEM, dose 6.35 × 10^-8 Molar, read-out: Percent of Protection) was -0.27%. The inhibition at 20 µM (HIV-1; [5]) was 61.9%, the inhibition at 63.2 µM (HIV-1; [15]) was -0.27% and the inhibition at 6.33 µM (HIV-1; [6]) was 69%. The activity at 200 µM (HIV-1; [8]) was 28.4%, the activity at 20 µM (HIV-1; [9]) was 63.8% and the activity at 2 µM (HIV-1; [8]) was 14.9%. It also gave an activity at 0.2 µM (HIV-1; [8]) of 7.25%, an activity at 63.2 µM (HIV-1; [16]) of 26.1% and an activity at 6.33 µM (HIV-1; [10]) of 70.6%. For the same molecule, the activity at 0.634 µM (HIV-1; [11]) was 4.71%, the activity at 0.0635 µM (HIV-1; [12]) was 4.74% and the “TI50 (IC/EC), Therapeutic Index” value (HIV-1) was 7.79 × 10^0. It also gave an IC50 ([1]; uninfected CEM cells, 6 days, XTT, read-out: IC50 (50% inhibitory concentration for cell growth)) of 34.1 µM, an activity at 200 µM [1, 14] of 3.62% and an activity at 20 µM [1, 14] of 75.7%. It also gave an activity at 2 µM [1, 14] of 98.2%, an activity at 0.2 µM [1, 14] of 99.3% and an activity at 63.2 µM [1, 14] of 20.3%. The activity at 6.33 µM [1, 14] was 94.2%, the activity at 0.634 µM [1, 14] was 98.6% and the activity at 0.0635 µM [1, 14] was 101%.

Molecule `O=S(=O)(c1ccccc1)c1cccc2c1NCCC2` [Compound 45, 8-(phenylsulfonyl)-1,2,3,4-tetrahydroquinoline] has an EC50 (HIV-1; [2]) of 14 µM, an inhibition at 200 µM (HIV-1; [3]) of 42.2% and an inhibition at 20 µM (HIV-1; Human immunodeficiency virus 1, CCRF-CEM, dose 2.00 × 10^-5 Molar, read-out: Percent of Protection) of 67%. For the same molecule, the inhibition at 2 µM (HIV-1; [3]) was 2.49%, the inhibition at 0.2 µM (HIV-1; [3]) was 0.38% and the inhibition at 63.2 µM (HIV-1; Human immunodeficiency virus 1, CCRF-CEM, dose 6.32 × 10^-5 Molar, read-out: Percent of Protection) was 59.8%. It also gave an inhibition at 6.33 µM (HIV-1; Human immunodeficiency virus 1, CCRF-CEM, dose 6.33 × 10^-6 Molar, read-out: Percent of Protection) of 13.3%, an inhibition at 0.634 µM (HIV-1; Human immunodeficiency virus 1, CCRF-CEM, read-out: Percent of Protection, dose 6.34 × 10^-7 Molar) of 0.22% and an inhibition at 0.0635 µM (HIV-1; [7]) of -1.54%. For the same molecule, the activity at 200 µM (HIV-1; [8]) was 43.3%, the activity at 20 µM (HIV-1; [9]) was 67.7% and the activity at 2 µM (HIV-1; [8]) was 4.44%. The activity at 0.2 µM (HIV-1; [8]) was 2.37%, the activity at 63.2 µM (HIV-1; [16]) was 60.6% and the activity at 6.33 µM (HIV-1; [10]) was 15.1%. The activity at 0.634 µM (HIV-1; [11]) was 2.22%, the activity at 0.0635 µM (HIV-1; [12]) was 0.49% and the “TI50 (IC/EC), Therapeutic Index” value (HIV-1) was 1.43 × 10^+1. The IC50 [1, 13] was greater than 200 µM, the activity at 200 µM [1, 14] was 62.1% and the activity at 20 µM [1, 14] was 101%. The activity at 2 µM [1, 14] was 93.3%, the activity at 0.2 µM [1, 14] was 84.2% and the activity at 63.2 µM [1, 14] was 74.2%. For the same molecule, the activity at 6.33 µM [1, 14] was 94.3%, the activity at 0.634 µM [1, 14] was 89.7% and the activity at 0.0635 µM [1, 14] was 87.2%.
